Source: US10258620B2, “Crystalline form of 5-amino-2,3-dihydrophthalazine-1,4-dione sodium salt, pharmaceutical preparations containing the same and method for the production of said form” (METRIOPHARM AG, priority 2014, dated 2019)
Where a name gives a salt, the structure may show the parent alone. Read-outs that look alike come from different tables or passages of the source.

Columns and labels:
[1] = FIG. 8, increasing proportion of H2O
TNF alpha = details: PMA-differentiated HL60 cells, pre-stimulation 1 h with 1 mmol/l, then 100 ng/mL LPS 24 h, 3 measurements, LPS control 30.08
Description: (§1) For the differentiation to macrophages HL60 cells were treated with phorbol 12-myristate 13-acetate (PMA) in advance. […] The secretion of TNF alpha and IL-6 was determined in the cell supernatant using ELISA testing over 3 measurements, respectively. Table 4 as well as FIGS. 7a and 7b show the respective mean value m and the standard deviation s (GraphPad Prism 5).

IL-6 = details: PMA-differentiated HL60 cells, pre-stimulation 1 h with 1 mmol/l, then 100 ng/mL LPS 24 h, 3 measurements, LPS control 42.81
Description: as §1

[2] = from WO2011/107295A1; cited from earlier work
[3] = determination repeated 10 times
Description: After drying all forms produced were vortexed for 1 minute to let bigger agglomerates carefully disaggregate.
A sample of each of the respective solids to be determined was filled into a plastic funnel for solids (diameter of the outlet: 11 mm) with closable outlet which was mounted in a height of 20 mm above the collecting vessel. The funnel used was always filled half-full, thereby ensuring that there was always more sample material provided than necessary for filling the collecting vessel. After opening the outlet the respective solids trickled into the collecting vessel until it was filled up above the upper rim. The supernatant of the respective solids was removed with a spatula and the filled collecting vessel was weighed out with a high-resolution balance. The determination for each form was repeated 10 times and the mean value was calculated (Table 3).

[4] = 30-600° C., synthetic air, heating rate 10° C./min
Description: The determination was carried out by means of simultaneous thermogravimetry (differential scanning calorimetry) at a Linseis L81-077 coupled with mass spectroscopy measurements with a Netzsch STA 449 C (thermobalance) with MS and FTIR coupling over 30-600° C. under synthetic air (4 N2:1 O2) and a heating rate of 10° C./min. The data were analyzed with the company software Proteus.

[5] = methanol or ethanol
Source text: In polymorphs of crystalline solids phase transitions occur depending on the thermodynamic stability of the individual forms. […] Different transformation processes are known. […] In this respect so-called slurry experiments can provide information on the thermodynamic stability of polymorphs of a solid.
To compare the stability under the influence of solvents 50:50 (wt %) solid phase mixtures were produced of form III according to the invention and form I as well as of form III according to the invention and form II.
In each case 0.05 g of the respective solid phase mixture were suspended in 5 mL 2-propanol, methanol or ethanol, respectively. The mixture of form III and form I was stirred at RT for 3 days. The mixture of form III and form II was stirred at RT for 24 h. The suspensions were filtered under vacuum utilizing a Büchner funnel. The remaining crystalline solid was completely dried at RT. X-ray powder diffraction patterns of the resulting crystalline solids were recorded with a Bragg-Brentano diffractometer (STOE STADI P) provided with a DECTRIS MythenlK detector using mono-chromatized (Ge111-monochromator) copper emissions Cu K(α1) (wave length λ=1.54187 Å).

physchem = experiment: physchem
Description: Determination of the maximum solubility of crystalline form III in water at RT was carried out with UV-Vis spectroscopy in an Agilent Cary 300 UV-Vis spectrometer. This process is based on a linear correlation between the concentration of a dissolved solid and the calculated absorption at a particular wavelength (Beer-Lambert law).
A stock solution of 0.502 g of form III in 2 mL H2O (demineralized) was produced. For the generating a 3-point calibration curve three solutions were produced after appropriate dilution thereof with concentrations of 0.5041 mmol/l, 0.2521 mmol/l and 0.1260 mmol/l, and their respective absorption at 347 nm was determined. […] Further, a supersaturated solution of 0.531 g of form III in 2 mL H2O (demineralized) was produced to determine the maximum concentration. 100 μL of the solution were 2000-fold diluted and the absorption at 347 nm was determined as well.

[6] = water, thermodynamic from solid

Q: Which “solubility in a DMSO-H2O mixture with increasing proportion of H2O” value [1] does the source give for `Nc1cccc2c(=O)[nH][nH]c(=O)c12` [5-amino-2,3-dihydrophthalazine-1,4-dione sodium salt] here?
A: increases continuously

Q: Which “TNF-alpha secretion, mean m” value (TNF alpha; sodium salt dihydrate) does the source give for `Nc1cccc2c(=O)[nH][nH]c(=O)c12` [Dihydrate, 5-amino-2,3-dihydrophthalazine-1,4-dione sodium salt dihydrate] here?
A: 26.87 pg/mL

Q: And the “IL-6 secretion, mean m” value (IL-6; sodium salt dihydrate)?
A: 40.93 pg/mL

Q: What about the “solid phase transition temperature” value [2] of the same molecule?
A: 85 °C

Q: And the “Bulk densities (mean ± standard deviation)” value ([3]; sodium salt dihydrate)?
A: 72.3 ± 4.1 kg/m^3

Q: Which results are given for `Nc1cccc2c(=O)[nH][nH]c(=O)c12` [Form I, 5-amino-2,3-dihydrophthalazine-1,4-dione sodium salt]?
A: TNF-alpha secretion, mean m (TNF alpha; sodium salt): 25.28 pg/mL; IL-6 secretion, mean m (IL-6; sodium salt): 41.15 pg/mL; Bulk densities (mean ± standard deviation) ([3]; sodium salt): 201.9 ± 3.9 kg/m^3

Q: Which “TNF-alpha secretion, mean m” value (TNF alpha; sodium salt) does the source give for `Nc1cccc2c(=O)[nH][nH]c(=O)c12` [Form II, 5-amino-2,3-dihydrophthalazine-1,4-dione sodium salt] here?
A: 22.16 pg/mL

Q: And the “IL-6 secretion, mean m” value (IL-6; sodium salt)?
A: 36.11 pg/mL

Q: And the “Bulk densities (mean ± standard deviation)” value ([3]; sodium salt)?
A: 108.6 ± 3.0 kg/m^3

Q: For `Nc1cccc2c(=O)[nH][nH]c(=O)c12` [Form III, 5-amino-2,3-dihydrophthalazine-1,4-dione sodium salt], which “temperature at which decomposition starts” value [4] is on record?
A: 391.7 °C

Q: And the “TNF-alpha secretion, mean m” value (TNF alpha; sodium salt)?
A: 22.15 pg/mL

Q: And the “IL-6 secretion, mean m” value (IL-6; sodium salt)?
A: 34.86 pg/mL

Q: What about the “thermodynamic stability versus form I” value ([5]; 50:50 wt % mixture of form I and form III in 2-propanol, stirred at RT for 3 days) of the same molecule?
A: thermodynamically more stable polymorph

Q: And the “thermodynamic stability versus form II” value ([5]; 50:50 wt % mixture of form II and form III in 2-propanol, stirred at RT for 24 h)?
A: thermodynamically more stable polymorph

Q: And the “solubility in water compared with forms I and II” value (physchem; RT, forms I and II cf. WO2011/107295A1)?
A: less soluble than forms I and II

Q: And the solubility (physchem; [6])?
A: 145 mg/mL

Q: And the solubility thermodynamic (physchem; [6])?
A: 730 mM

Q: And the “Bulk densities (mean ± standard deviation)” value ([3]; sodium salt)?
A: 203.5 ± 6.7 kg/m^3
